Results published in patent US11981921B2, “TIL expansion processes using specific cytokine combinations and/or AKTi treatment” (Iovance Biotherapeutics, Inc., priority 2022, dated 2024).
Read-outs that look alike come from different tables or passages of the source.

Columns and labels:
TIL = assay: AKT inhibition during ex vivo TIL expansion (REP); assay type: cell-based
Protocol: Patient tumors from different indications were received, fragmented, and subjected to an expansion protocol for TIL manufacturing. Different doses (0.3 μM and 1 μM) of the pan-AKT inhibitor (AKTi) ipatasertib were added to the culture during ex vivo expansion. The expansion potential, as well as the phenotypic and functional characteristics of TIL were evaluated on the final TIL product.

TILs [1] = system: TILs
Protocol: This Example describes the evaluation of the effects of IL-21 (10 ng/ml)+ AZD5363 in combination with increasing doses of IL-2 or IL-15 and evaluation of the overall impact on preventing effector differentiation, promoting more stem-like attributes and improving functionality of TILs during REP. The overarching goal of these experiments is to examine the growth conditions during the whole expansion process of TILs to augment their stem-like attributes while improving their functional and phenotypic characteristics.
Frozen pre-REP TILs were thawed and REPed under different conditions in 24-well GREX plates. Cytokines were given twice (Day 0 and Day 5 of pre-REP). Pre-REP TILs from 3 different indications were thawed and REPped in a G-REX 24 well plate. The following conditions were included in the REP protocol used in 24-well G-Rex plates: • 1) Feeder:TIL ratio 250:1 with 5 million feeders and 20,000 TILs per well, OKT3 at 30 ng/mL, • 2) On day 0 the REP is initiated with 3 mL of CM2 with cytokines and compounds, • 3) On day five 5 mL of CM4 media was added to each well, • 4) All cytokines and compounds are added twice on day 0 and day 5. The following conditions were tested: IL-2 3000 IU/mL, IL-2 2000 IU/mL, IL-2 1000 IU/mL, IL-2 3000 IU/mL+IL-21 10 ng/ml, IL-2 2000 IU/mL+IL-21 10 ng/ml, IL-2 1000 IU/mL+IL-21 10 ng/ml, IL-2 3000 IU/mL+IL-21 10 ng/ml+2 uM AZD5363 (added once), IL-2 2000 IU/mL+IL-21 10 ng/ml+2 uM AZD5363 (added once), IL-2 1000 IU/mL+IL-21 10 ng/ml+2 uM AZD5363 (added once), and IL-15 10 ng/ml+IL-21 10 ng/ml+1 uM AZD5363 (added twice).

TILs [2] = system: TILs; remark: listed apart in the source
From the text: (§1) The overarching goal of these experiments is to examine the growth conditions during the whole expansion process of TILs to augment their stem-like attributes while improving their functional and phenotypic characteristics.
(§2) Pre-REP TILs from 3 different indications were thawed and REPped in a G-REX 24 well plate. Cytokines were given twice (Day 0 and Day 5 of pre-REP). The following conditions were included in the REP protocol used in 24-well G-Rex plates: • 1) Feeder:TIL ratio 250:1 with 5 million feeders and 20,000 TILs per well, OKT3 at 30 ng/mL, • 2) On day 0 the REP is initiated with 3 mL of CM2 with cytokines and compounds, • 3) On day five 5 mL of CM4 media was added to each well, • 4) All cytokines and compounds are added twice on day 0 and day 5.

KILR® THP-1 cells = assay: TIL cytotoxicity in coculture with KILR THP-1 cells; assay type: cell-based; settings: 24 hrs coculture, 10:1, Invigo-T process
Protocol: TILs were then tested for cytotoxicity in an allogeneic environment after coculture for 24 hrs with KILR® THP-1 cells at a 10:1 effector-to-target cell. […] TILs were next stimulated every 3 days with TransAct followed by coculture for 24 hrs with KILR® THP-1 cells before being assessed for cytotoxicity and IFNg expression (as measured byflow cytometry staining).

TILs [3] = settings: 1 or 2 uM given once or twice, with IL-2 1000 IU/ml + IL-21 10 ng/ml
From the text: as §1
as §2, with “Frozen pre-REP TILs were thawed and REPed under different conditions in 24-well GREX plates. […] Pre-REP” for “Pre-REP”, “plate.” for “plate. Cytokines were given twice (Day 0 and Day 5 of pre-REP).”

TILs [4] = assay: Evaluation of I-TIL process conditions (pre-REP and REP, 18 tumors); assay type: cell-based
Protocol: Tumors (N=18) were received and processed for both pre-REP and REP expansion to test and select a preferred set of conditions, nominated as the final I-TIL (invigorated TIL) conditions.
Cytokines were added twice on Day 0 and Day 5 of pre-REP.
Pre-REP cells were then frozen until all pre-REP samples were generated in order to initiate the REP together at the same time. Frozen pre-REP TILs were thawed and rested overnight in their corresponding conditions followed by REP in 24-well G-Rex plates. […] Cytokines were added twice on Day 0 and Day 5 and AZD5363 was only added once on Day 0 of REP.

[5] = AKTi treatment during ex vivo expansion
[6] = with IL-15 10 ng/ml + IL-21 10 ng/ml

## CC(C)NC[C@@H](C(=O)N1CCN(c2ncnc3c2[C@H](C)C[C@H]3O)CC1)c1ccc(Cl)cc1 [AKTi, ipatasertib]
TIL; 1 μM dose, relative to control
  expansion and viability of TIL: equivalent
TIL; 1 μM dose, relative to control, present even after re-stimulation
  population of less differentiated CD39−CD69− cells: doubled
TIL; [5]
  cytotoxicity of TIL: increased cytotoxicity
  frequency of IFNγ+TNFα+CD8+ T cells: increase
TIL; CD39−CD69− cells after re-stimulation
  expression of CD38 and transcription factors T-bet and Tox: reduced expression

## AZD5363
TILs [1]; 2 uM given once, with IL-2 1000 IU/ml + IL-21 10 ng/ml
  effector differentiation, stem-like phenotype, functional responses, inhibitory receptor expression: induces many of the desired changes
TILs [1]; IL-15 combination
  activation state of TILs: further reduced
TILs [1]; [6]
  effects on cytokine production, in particular IL-2: quite significant
TILs [1]; with IL-15 10 ng/ml + IL-21 10 ng/ml, vs IL-2 combination
  same effects with IL-15 instead of IL-2: comparable
TILs [2]; [6]
  effector differentiation, stem-like phenotype, functional responses, inhibitory receptor expression: induces many of the desired changes
TILs [2]; with IL-15 + IL-21, vs IL-2 1000 IU/ml and IL-21 10 ng/ml
  effects on increasing IFNg, TNFa and IL-2: more pronounced
KILR® THP-1 cells
  cytotoxicity with or without AZD5363: no significant difference
TILs [3]
  phenotypic changes on TILs (inhibitory receptors, activation, stem-like qualities, functionality): further beneficial phenotypic changes
TILs [4]; 2 uM once on Day 0 of REP, with IL-15 10 ng/ml + IL-21 10 ng/ml
  effector differentiation, stem-like phenotype, functional responses, inhibitory receptor expression: induces many of the desired changes
TILs [4]; with IL-15 + IL-21, vs IL-2 1000 IU/ml + IL-21 10 ng/ml + AZD5363
  effects on increasing IFNg, TNFa and IL-2: more pronounced

## IL-15: cytokine used at 10 ng/ml with IL-21 during REP
TILs [4]; IL-15 conditions
  yield and viability of the process: significantly augmented
